The values that follow come from patent US11666517B2, “Antimicrobial composition” (Firmenich SA, priority 2016, dated 2023).

The structures appear in SMILES notation.

The test system of one assay is E. coli DSMZ 1103. Nature of the assay: BCT test in 50% liquid soap base. In kind it is cell-based, Escherichia coli. To be noted: Table 21: single material 0.3% in 50% liquid soap base, contact time 45 sec. On the procedure: Bacterial solutions of the two strains, E. coli DSMZ 1103 and S. aureus DSMZ 1104, were prepared for BCT test as follows. Stock cultures stored at −80° C. were sub-cultured onto Tryptic Soy Agar (TSA) agar plate media, and incubated at 37° C. for 24 h to obtain single colonies. Single colonies of the primary cultures were streaked onto TSA slant and incubate it at 37° C. incubator for 24 h. Bacterial lawns of the slant culture were collected in PBS buffer to make suspensions with the target level of 1-5×10^8 CFU/mL. The 1:100 dilution of each cell suspension in PBS buffer was used as the bacterial solutions for the BCT test.
Test samples of base with synergistic binary mixtures were prepared as follows. Raw materials of the synergistic binary mixtures (Table 17) were mixed with the liquid soap base PGK-10-003 (Table 18). Aliquots (2.5 g) of each mixture were weighed into 20 ml glass tube with a stirrer bar, and added with equal amount of MilliQ water to make 50% suspension as the test samples for the BCT test.
BCT tests were performed in the 20 ml sample tubes. Each sample tube with 5 g of 50% sample suspension was placed onto a magnetic stirrer, and an aliquot of bacterial solution (100 μl) was added to the sample and allowed for a contact of 45 sec during mixing. Then aliquots (0.5 ml) of the mixture were transferred into 5 ml PBS, and further serial dilutions were made in 4.5 ml PBS. Aliquots (0.5 ml) of PBS dilutions were plated onto duplicate plates of TSA plates using the pour plate method. TSA plates were incubated at 37° C. for 48 h. After incubation, colonies on TSA plates were enumerated and log reduction of each sample were calculated against the CFU counts of the control sample (MilliQ water).
Take `Cc1ccc(C(C)C)c(O)c1` [2-isopropyl-5-methylphenol]: the “Average log reduction ± SEM (n = 2)” value came to 0.4 ± 0.0 log.

For `CC(C)(C)Cc1cccnc1` [3-neopentylpyridine], the “Average log reduction ± SEM (n = 2)” value was determined as 0.3 ± 0.2 log.

In the case of `CC/C=C\CC/C=C/CO` [(2E,6Z)-nona-2,6-dien-1-ol], the “Average log reduction ± SEM (n = 2)” value worked out at 0.3 ± 0.2 log.

In the next assay the test system is S. aureus DSMZ 1104. As to the kind of experiment: Fractional Inhibitory Concentration Index (FIC) / MIC, 96-well broth dilution of ingredient combinations. In kind it is cell-based, Staphylococcus aureus. To be noted: Staphylococcus aureus, DSMZ1104, 24 h, ingredient used in isolation, other ingredient 0 ppm; 37° C., 24 hours; read-out: Concentration of ingredient alone (Minimal Inhibitory Concentration, MIC alone). On the procedure: (§1) The method below allows evaluating antimicrobial activity of different raw materials in combination. The Fractional Inhibitory Concentration Index (FIC Index) is a measure of activity (Garcia L. S., Clinical Microbiology Procedures Handbook, pg. 140-162, 3rd Edition (2010), ASM Press, Washington D.C.) and is calculated according to the formula below:
(§2) [formula] where (MICA alone) and (MICB alone) are the Minimal Inhibitory Concentrations (MIC) of individual ingredients A and B when used in isolation, respectively; whereas (MICA combination) and (MICB combination) are the Minimal Inhibitory Concentrations of materials A and B when tested in combination. Ingredient A corresponds to nona-2,6-dien-1-ol and ingredient B stands for 3-neopentylpyridine, 2-methylhexan-3-one oxime, terpineol or 2-isopropyl-5-methylphenol.
(§3) The Minimal Inhibitory Concentration of a material is defined as the lowest concentration of an agent which can inhibit visible bacterial growth (CLSI M08-A8 Methods for dilution Antimicrobial Susceptibility Test for Bacteria That Grow Aerobically; Approved Standard-Eighth Edition).
(§4) Bacterial suspensions of E. coli DSMZ 1103 and S. aureus DSMZ 1104 were prepared as follows: a frozen stock aliquot was streaked on a Tryptic Soy Agar plate, which was then incubated at 37° C. for 24 hours. A single bacterial colony was picked and inoculated into 50 ml of Mueller Hinton Broth contained in a 100 ml-flask. Incubation was performed overnight at 37° C., under agitation (160 rpm). The following day, the overnight culture was diluted into 50 ml of fresh Mueller Hinton Broth at 1:50 and 1:100 for S. aureus and E. coli, respectively. Growth at 37° C. was continued as described above until the absorbance measured at 600 nm reached 0.7-0.9 and 0.3-0.45 for S. aureus and E. coli, respectively. At this point, cells were harvested by centrifugation (10 min—5000×g—4° C.) and suspended in fresh Mueller Hinton Broth at a concentration of 1×10^8 CFU/ml.
(§5) Solutions of raw materials under evaluation (ingredients A and B) were prepared in ethanol and then serially diluted in the desired concentration into 96-well microtiter plates (10 μl per well). Columns 1, 10, 11 and 12 received only 10 μl ethanol without any testing material. The final concentration of ethanol was 5% w/v for all wells.
(§6) Then, 90 μl of cell suspension as prepared above were added to each well of the microtiter plate, with the exception of column 12 which received 90 μl of Mueller Hinton Broth. The final volume of each well was brought to 200 μl with Mueller Hinton Broth. Each plate was sealed and incubated at 37° C. for 24 hours, under agitation (160 rpm). After incubation, plate reading was performed visually by recording wells with visible bacterial growth. Each combination of materials was tested in triplicate. Turbidity due to potential precipitation of raw materials was taken into account by scoring plates containing identical raw material concentrations, without bacteria.
(Dilution methods test growth across graded concentrations, often in twofold steps.)
Consider `CCCC(=NO)C(C)C` [2-methylhexan-3-one oxime], for which the MIC worked out at 4800 µg/mL.

Turning to `CC1=CCC(C(C)(C)O)CC1` (stereo not drawn) [α-terpineol], the MIC was determined as 1200 µg/mL.

Still in this assay, the particulars now being: Staphylococcus aureus, DSMZ1104, 24 h, read-out: Concentration of ingredient alone (Minimal Inhibitory Concentration, MIC alone).
Regarding `O=Cc1ccc2c(c1)OCO2` [1,3-Benzodioxole-5-carbaldehyde], the MIC was 1200 µg/mL.

Staying with this assay, now noted: ingredient alone at its MIC, other ingredient 0 ppm.
`O=Cc1ccc2c(c1)OCO2` [1,3-Benzodioxole-5-carbaldehyde]: the FIC is given as 1.00.

`CCCC(=NO)C(C)C` [2-methylhexan-3-one oxime]: the FIC is on record as 1.00.

In the case of `CC(C)(C)Cc1cccnc1` [3-neopentylpyridine], the FIC amounted to 1.00.

For `COc1ccc(C=O)cc1` [4-Methoxybenzaldehyde], the FIC is 1.00.

`CC/C=C\CC/C=C/CO` [(2E,6Z)-nona-2,6-dien-1-ol]: the FIC is reported as 1.00.

In a further assay the test system is E. coli DSMZ 1103. Described as above. It is filed as cell-based, Escherichia coli. To be noted: Escherichia coli, DSMZ1103, 24 h, ingredient used in isolation, other ingredient 0 ppm; 37° C., 24 hours; read-out: Concentration of ingredient alone (Minimal Inhibitory Concentration, MIC alone). Here is the method:
as §1, §2, §3, §4, §5, §6
`CC(C)=CCCC(C)=CCO` (stereo in doubt) [(Z)-3,7-Dimethyl-2,6-octadien-1-ol]: the MIC is 1200 µg/mL.

Take `Cc1ccc(C(C)C)c(O)c1` [2-isopropyl-5-methylphenol]: the MIC stood at 600 µg/mL.

For the compound `CC(C)(C)Cc1cccnc1` [3-neopentylpyridine], the MIC worked out at 600 µg/mL.

As for `COc1ccc(C=O)cc1` [4-Methoxybenzaldehyde], the MIC was 1200 µg/mL.

On to `CC(C)[C@H]1CC[C@@H](CO)CC1` [cis-4(Isopropyl)cyclohexanemethanol], for which the MIC came to 9600 µg/mL.

The same assay, now with this note: Escherichia coli, DSMZ1103, 24 h, read-out: Concentration of ingredient alone (Minimal Inhibitory Concentration, MIC alone).
As for `O=Cc1ccc2c(c1)OCO2` [1,3-Benzodioxole-5-carbaldehyde], the MIC amounted to 1200 µg/mL.

The same assay, now with this note: ingredient alone at its MIC, other ingredient 0 ppm.
With `CC(C)=CCCC(C)=CCO` (stereo in doubt) [(Z)-3,7-Dimethyl-2,6-octadien-1-ol], the FIC is reported as 1.000.

In the case of `O=Cc1ccc2c(c1)OCO2` [1,3-Benzodioxole-5-carbaldehyde], the FIC is 1.000.

Consider `Cc1ccc(C(C)C)c(O)c1` [2-isopropyl-5-methylphenol], for which the FIC was 1.000.

Take `CC(C)(C)Cc1cccnc1` [3-neopentylpyridine]: the FIC came to 1.000.

For `COc1ccc(C=O)cc1` [4-Methoxybenzaldehyde], the FIC came out at 1.000.

Regarding `CC/C=C\CC/C=C/CO` [(2E,6Z)-nona-2,6-dien-1-ol], the FIC amounted to 1.000.

Turning to `CC(C)[C@H]1CC[C@@H](CO)CC1` [cis-4(Isopropyl)cyclohexanemethanol], the FIC was 1.000.

The next assay has as its system C. xerosis ATCC 373. Nature of the assay: BCT test in 90% roll-on deodorant base. It is filed as cell-based, Corynebacterium xerosis. The settings on record: Table 25: single material 0.216% in 90% roll-on deodorant base, contact time 120 sec. Here is the method:
Bacterial solution of C. xerosis ATCC 373 strain was prepared for BCT test as follows. Stock cultures stored at −80° C. were subcultured onto Tryptic Soy Agar media with 0.5% Tween 80 (TSA-TW80), and incubated at 37° C. for 48 h. The primary cultures were subcultured onto TSA-TW80 again to prepare the secondary cultures. Single colonies of secondary culture were inoculated into 30 ml of Brain Heart Infusion (BHI) broth with 0.5% Tween 80 (BHI-TW80), and incubated at 37° C. 180 rpm for 24 h. Aliquots (1 ml) of the 24 h culture were inoculated into 30 ml of fresh BHI-TW80 broth, and incubated at 37° C. 180 rpm for 48 h. Aliquots (2-3 ml) of the 48 h culture were inoculated into four 50 ml of fresh BHI-TW80 broth medium, and incubated at 37° C. 180 rpm for 4-6 hrs. When the OD reached the target value of 1.6, cells were harvested by centrifugation at 5000 rpm for 10 min, and then resuspended in the same fresh broth media to a target concentration of 10^9 to 10^10 cfu/mL. This suspension was used as the bacterial solution for the BCT test.
Test samples of base with synergistic binary mixtures were prepared as follows. Raw materials of the synergistic binary mixtures were weighed (Table 22), and mixed with 0.3 g PEG-40 Hydrogenated Castor Oil and 9.57 g deodorant roll on base (Table 23).
BCT tests were performed in 15 ml sample tubes. Aliquots (0.9 g) of each sample were weighed into the tube, and an aliquot of bacterial solution (100 μl) was added to the sample and allowed for a contact time of 120 sec with constant mixing. At the end of the contact time, aliquots (9 ml) of BHI broth were added to the tube. The suspensions were mixed well by vortexing, and further 1:10 serial dilutions were made in […] BHI. Aliquots (1 ml) of BHI dilutions were plated onto duplicate plates of TSA-TW80 using pour plate methods. TSA-TW80 plates were incubated at 37° C. for 2-3 days. After incubation, colonies on TSA-TW80 plates were enumerated and log reduction of each sample were calculated against the CFU counts of the control sample (BHI).
For `Cc1ccc(C(C)C)c(O)c1` [2-isopropyl-5-methylphenol], the Log reduction turned out to be 6.0 log.

As for `CC(C)(C)Cc1cccnc1` [3-neopentylpyridine], the Log reduction was 5.9 log.

Regarding `CC/C=C\CC/C=C/CO` [(2E,6Z)-nona-2,6-dien-1-ol], the Log reduction is recorded as 5.7 log.
